Common to all, as to assay: Minimal inhibitory concentration (M.I.C.), agar dilution method
Common to all, as to conditions: TSA, inoculum 10^7 /ml
In general terms: In agar dilution the substance is mixed into plates at graded concentrations.

For one experiment, the system named is P. rettgeri GN4733. The class given is cell-based, Proteus rettgeri. The source says: (§1) (a) Determination of minimal inhibitory concentrations (Tables 1 to 8):
(§2) Procedure: agar dilution method

The next experiment deals with P. rettgeri TN 338. It is filed as cell-based, Proteus rettgeri.
Source text: as §1, §2

The subject of the next experiment is E. coli T-7. It is filed as cell-based, Escherichia coli.
Source text: as §1, §2

Another experiment concerns E. coli NIHJ JC-2. The class given is cell-based, Escherichia coli.
Source text: as §1, §2

A further experiment relates to K. pneumoniae GN 3835. The class given is cell-based, Klebsiella pneumoniae.
Source text: as §1, §2

The next experiment deals with K. pneumoniae DT. It is filed as cell-based, Klebsiella pneumoniae.
Source text: as §1, §2

The subject of a further experiment is S. marcescens TN 24. The class given is cell-based, Serratia marcescens.
Source text: as §1, §2

Another experiment has as its system S. marcescens IFO 12648. The class given is cell-based, Serratia marcescens.
Source text: as §1, §2

The next experiment deals with P. morganii IFO 3168. The class given is cell-based, Proteus morganii.
Source text: as §1, §2

Another experiment deals with C. freundii GN 99. The class given is cell-based, Citrobacter freundii.
Source text: as §1, §2

In the next experiment the test system is C. freundii GN 1706. It is filed as cell-based, Citrobacter freundii.
Source text: as §1, §2

The next experiment has as its system P. vulgaris GN 4413. It is filed as cell-based, Proteus vulgaris.
Source text: as §1, §2

A further experiment relates to P. vulgaris IFO 3988. It is filed as cell-based, Proteus vulgaris.
Source text: as §1, §2

The test system of another experiment is S. aureus 209P. It is filed as cell-based, Staphylococcus aureus.
Source text: as §1, §2

For a further experiment, the system named is S. aureus 1840. The class given is cell-based, Staphylococcus aureus.
Source text: as §1, §2

Another experiment deals with E. coli 0-111. The class given is cell-based, Escherichia coli.
Source text: The minimal inhibitory concentrations (M.I.C.) of some representative cephalosporin derivatives of this invention as produced by the procedures described in those examples and the minimal inhibitory concentrations of cephalothin [sodium 7-(2-thienylacetamido)-3-acetoxymethyl-3-cephem-4-carboxylate], cephaloridine [7-(2-thienylacetamido)-3-(1-pyridyl)methyl-3-cephem-4-carboxylic acid betaine] and cefazolin [sodium 7-(1H-tetrazol-1-yl)acetamido-3-(2-methyl-1,3,4-thiadiazol-5-yl)thiomethyl-3-cephem-4-carboxylate], which are among the clinically established and commercially available cephalosporins (as described, for example, in the New England Journal of Medicine 294, 24, 1976 and Journal of Pharmaceutical Science 64, 1899, 1975), both against various bacteria, as well as the therapeutic effects of some respresentative cephalosporin derivatives of this invention and of cephaloridine in infected mice, are shown in tables.
as §1, §2

The test system of another experiment is P. mirabilis GN 4359. It is filed as cell-based, Proteus mirabilis.
Source text: as §1, §2

A further experiment deals with E. cloacae TN 1282. The class given is cell-based, Enterobacter cloacae.
Source text: as §1, §2

`Cc1nnc(SCC2=C(C(=O)[O-])N3C(=O)C(NC(=O)Cn4cnnn4)[C@H]3SC2)s1.[Na+]` (some centres unmarked) [Cefazolin, sodium 7-(1H-tetrazol-1-yl)acetamido-3-(2-methyl-1,3,4-thiadiazol-5-yl)thiomethyl-3-cephem-4-carboxylate, reference compound]: the “minimal inhibitory concentration (M.I.C.)” value in the experiment on P. rettgeri GN4733 is recorded as 100; with P. rettgeri TN 338 it was at most 0.2; with E. coli T-7, 50; in the experiment with E. coli NIHJ JC-2, 1.56; in the experiment with K. pneumoniae GN 3835 it was 6.25; with K. pneumoniae DT, 1.56. Moreover, the “minimal inhibitory concentration (M.I.C.)” value in the experiment with S. marcescens TN 24 is reported as over 100; in the experiment with S. marcescens IFO 12648 it was over 100; with P. morganii IFO 3168, 100; in the experiment with C. freundii GN 99, 12.5; in the experiment on C. freundii GN 1706, over 100; in the experiment with P. vulgaris GN 4413, over 100. The “minimal inhibitory concentration (M.I.C.)” value with P. vulgaris IFO 3988 is given as 3.13; with S. aureus 209P, 0.39; in the experiment with S. aureus 1840, 1.56; in the experiment with E. coli 0-111 it was 1.56; with P. mirabilis GN 4359 it was 6.25.
As to `CNC(=O)O/N=C(\C(=O)NC1C(=O)N2C(C(=O)O)=C(C)CSC12)c1csc(=N)[nH]1` (centres unmarked) [Example II - 6], the “minimal inhibitory concentration (M.I.C.)” value in the experiment on P. rettgeri GN4733 is given as 0.2; in the experiment with P. rettgeri TN 338, 0.024; with E. coli T-7 it was 6.25; in the experiment on E. coli NIHJ JC-2 it was 3.13; in the experiment with K. pneumoniae GN 3835, 1.56; in the experiment with K. pneumoniae DT it was 0.78. Moreover, the “minimal inhibitory concentration (M.I.C.)” value in the experiment on S. marcescens TN 24 stood at 100; with S. marcescens IFO 12648, 50; in the experiment on P. morganii IFO 3168, 12.5; with C. freundii GN 99 it was 6.25; in the experiment on C. freundii GN 1706, 12.5; in the experiment with P. vulgaris GN 4413, 12.5. Further, the “minimal inhibitory concentration (M.I.C.)” value in the experiment on P. vulgaris IFO 3988 came out at 1.56; with S. aureus 209P it was 50; in the experiment on S. aureus 1840 it was 50; with E. coli 0-111, 0.78; in the experiment on P. mirabilis GN 4359, 0.78; in the experiment on E. cloacae TN 1282 it was 50.
`CNC(=O)O/N=C(\C(=O)NC1C(=O)N2C(C(=O)O)=C(CSc3nnnn3CCN(C)C)CSC12)c1csc(=N)[nH]1` (stereo not drawn) [Example IV - 3, 7-[2-(2-imino-4-thiazolin-4-yl)-2-methylcarbamoyloximinoacetamido]-3-[1-(2-dimethylammonium)ethyl-1H-tetrazol-5-yl]thiomethyl-3-cephem-4-carboxylate (syn-isomer)]: the “minimal inhibitory concentration (M.I.C.)” value in the experiment on P. rettgeri GN4733 was 0.39; in the experiment on P. rettgeri TN 338 it was at most 0.2; in the experiment with E. coli T-7, 3.13; in the experiment on E. coli NIHJ JC-2, 0.39; in the experiment on K. pneumoniae GN 3835 it was 0.39; in the experiment with K. pneumoniae DT it was at most 0.2. Besides, the “minimal inhibitory concentration (M.I.C.)” value in the experiment on S. marcescens TN 24 is 6.25; in the experiment with S. marcescens IFO 12648, 6.25; with P. morganii IFO 3168 it was 0.39; in the experiment on C. freundii GN 99, at most 0.2; with C. freundii GN 1706, 0.78; in the experiment on P. vulgaris GN 4413, 100. Besides, the “minimal inhibitory concentration (M.I.C.)” value in the experiment with P. vulgaris IFO 3988 was 0.39; in the experiment with S. aureus 209P, 1.56; in the experiment with S. aureus 1840, 3.13; in the experiment on E. coli 0-111 it was at most 0.2; in the experiment with P. mirabilis GN 4359, 0.39; in the experiment with E. cloacae TN 1282, 1.56.
On to `CNC(=O)O/N=C(\C(=O)NC1C(=O)N2C(C(=O)O)=C(CSc3nnc(CC(N)=O)s3)CSC12)c1csc(=N)[nH]1` (centres unmarked) [Example IV - 6], for which the “minimal inhibitory concentration (M.I.C.)” value in the experiment with P. rettgeri GN4733 is recorded as 0.39; with P. rettgeri TN 338 it was at most 0.2; with E. coli T-7 it was 3.13; in the experiment with E. coli NIHJ JC-2, at most 0.2; in the experiment on K. pneumoniae GN 3835, 0.39; with K. pneumoniae DT it was at most 0.2. Besides, the “minimal inhibitory concentration (M.I.C.)” value in the experiment on S. marcescens TN 24 is 3.15; with S. marcescens IFO 12648, 3.13; in the experiment with P. morganii IFO 3168, at most 0.2; in the experiment with C. freundii GN 99 it was at most 0.2; in the experiment on C. freundii GN 1706, at most 0.78; in the experiment on P. vulgaris GN 4413, 25. Also, the “minimal inhibitory concentration (M.I.C.)” value is recorded as at most 0.2 with P. vulgaris IFO 3988; 1.56 in the experiment on S. aureus 209P; 3.13 in the experiment with S. aureus 1840; at most 0.2 in the experiment with E. coli 0-111; 0.39 in the experiment with P. mirabilis GN 4359; 3.13 with E. cloacae TN 1282.
As for `CCNC(=O)O/N=C(\C(=O)NC1C(=O)N2C(C(=O)O)=C(COC(N)=O)CSC12)c1csc(=N)[nH]1` (centres unmarked) [Example II - 8], the “minimal inhibitory concentration (M.I.C.)” value with P. rettgeri GN4733 is reported as 0.05; with P. rettgeri TN 338 it was at most 0.012; in the experiment on E. coli T-7 it was 1.56; with E. coli NIHJ JC-2 it was 0.2; in the experiment with K. pneumoniae GN 3835 it was 0.2; with K. pneumoniae DT it was 0.05. The “minimal inhibitory concentration (M.I.C.)” value with S. marcescens TN 24 came out at 6.25; with S. marcescens IFO 12648, 6.25; in the experiment with P. morganii IFO 3168, 3.13; with C. freundii GN 99, 0.1; in the experiment with C. freundii GN 1706 it was 0.39; in the experiment on P. vulgaris GN 4413, 100. Moreover, the “minimal inhibitory concentration (M.I.C.)” value in the experiment on P. vulgaris IFO 3988 was 0.1; with S. aureus 209P, 3.13; in the experiment on S. aureus 1840, 3.13; with E. coli 0-111, 0.024; in the experiment on P. mirabilis GN 4359 it was 0.1; in the experiment with E. cloacae TN 1282, 12.5.
`CCNC(=O)O/N=C(\C(=O)NC1C(=O)N2C(C(=O)O)=C(CSc3nnc(C)s3)CSC12)c1csc(=N)[nH]1` (centres unmarked) [Example II - 10]: the “minimal inhibitory concentration (M.I.C.)” value is listed as 0.78 in the experiment with P. rettgeri GN4733; at most 0.05 with P. rettgeri TN 338; 3.13 with E. coli T-7; 0.78 in the experiment with E. coli NIHJ JC-2; 0.78 with K. pneumoniae GN 3835; 0.2 in the experiment on K. pneumoniae DT. Further, the “minimal inhibitory concentration (M.I.C.)” value in the experiment on S. marcescens TN 24 stood at 1.56; in the experiment with S. marcescens IFO 12648 it was 3.13; with P. morganii IFO 3168, 0.39; with C. freundii GN 99 it was 0.39; with C. freundii GN 1706 it was 0.78; with P. vulgaris GN 4413, 12.5. Besides, the “minimal inhibitory concentration (M.I.C.)” value with P. vulgaris IFO 3988 came out at 0.39; in the experiment on S. aureus 209P, 0.78; in the experiment with S. aureus 1840 it was 1.56; in the experiment on E. coli 0-111, 0.2; with P. mirabilis GN 4359, 0.78; in the experiment with E. cloacae TN 1282, 3.13.
